# Source: patent US4247687A, “Aminoglycoside antibiotic derivatives and process for their preparation” (Farmitalia Carlo Erba S.p.A., priority 1979, dated 1981)
# Like-named read-outs stand apart in the source and are kept apart here.
# Experiments:
# Type in all cases: cell-based
# [1] = test system: Staphylococcus aureus 209 P; test: Conventional agar dilution, MIC
# Description: (§1) The antibacterial activity is determined by the conventional agar dilution method, and the minimal inhibitory concentration (MIC) is expressed in mcg/ml.
# P. aeruginosa 53585 = test: Conventional agar dilution, MIC; conditions: Pseudomonas aeruginosa
# Description: as §1
# [2] = test system: Pseudomonas aeruginosa 9229; test: Conventional agar dilution, MIC
# Description: as §1
# P. aeruginosa 5 = test: Conventional agar dilution, MIC; conditions: Pseudomonas aeruginosa
# Description: as §1
# P. aeruginosa B = test: Conventional agar dilution, MIC; conditions: Pseudomonas aeruginosa
# Description: as §1
# [3] = test system: E. coli K 12 R 112 (NPT I); test: Conventional agar dilution, MIC; conditions: Escherichia coli
# Description: as §1
# Proteus vulgaris = test: Conventional agar dilution, MIC
# Description: as §1
# P. aeruginosa 6 = test: Conventional agar dilution, MIC; conditions: Pseudomonas aeruginosa
# Description: as §1
# P. aeruginosa 4 = test: Conventional agar dilution, MIC; conditions: Pseudomonas aeruginosa
# Description: as §1
# Escherichia coli K 12 = test: Conventional agar dilution, MIC; conditions: K12
# Description: as §1
# P. aeruginosa 19660 = test: Conventional agar dilution, MIC; conditions: Pseudomonas aeruginosa
# Description: as §1
# E. coli K 12 R 55 (GNT) = test: Conventional agar dilution, MIC; conditions: Escherichia coli
# Description: as §1
# [4] = test system: E. coli K 12 R 118 (NPT II); test: Conventional agar dilution, MIC; conditions: Escherichia coli
# Description: as §1
# Proteus mirabilis 525 = test: Conventional agar dilution, MIC
# Description: as §1
# P. aeruginosa 53825 = test: Conventional agar dilution, MIC; conditions: Pseudomonas aeruginosa
# Description: as §1
# P. mirabilis V 15 = test: Conventional agar dilution, MIC; conditions: Proteus mirabilis, V15
# Description: as §1
# P. aeruginosa 47823 = test: Conventional agar dilution, MIC; conditions: Pseudomonas aeruginosa
# Description: as §1
# P. sp. V 16 = test: Conventional agar dilution, MIC
# Description: as §1
# bacterial strains = test: Antibacterial "in vitro" activity, conventional agar dilution (overall); conditions: in words, compared with neomycin B and paromomycin (1)
# Description: as §1
compound,measurement,setting,value
"NC[C@@H]1O[C@H](O[C@H]2[C@@H](O)[C@H](O[C@@H]3[C@@H](O)[C@H](N)C[C@H](N)[C@H]3O[C@H]3O[C@H](CN)[C@@H](O)[C@H](O)[C@H]3N)O[C@@H]2CO)[C@H](N)[C@@H](O)[C@@H]1O [Neomycin B, neomycin B]",MIC,"[1]; Staphylococcus aureus, 209P",1.55 µg/mL
same,MIC,P. aeruginosa 53585; 53585,> 100 µg/mL
same,MIC,"[2]; Pseudomonas aeruginosa, 9229",100 µg/mL
same,MIC,P. aeruginosa 5; 5,50 µg/mL
same,MIC,P. aeruginosa B,> 100 µg/mL
same,MIC,[3],> 200 µg/mL
same,MIC,Proteus vulgaris,25 µg/mL
same,MIC,P. aeruginosa 6; 6,25 µg/mL
same,MIC,P. aeruginosa 4; 4,25 µg/mL
same,MIC,Escherichia coli K 12; Escherichia coli,6.25 µg/mL
same,MIC,P. aeruginosa 19660; 19660,50 µg/mL
same,MIC,E. coli K 12 R 55 (GNT),6.25 µg/mL
same,MIC,[4],200 µg/mL
same,MIC,"Proteus mirabilis 525; Proteus mirabilis, 525",12.5 µg/mL
same,MIC,P. aeruginosa 53825; 53825,> 100 µg/mL
same,MIC,P. mirabilis V 15,25 µg/mL
same,MIC,P. aeruginosa 47823; 47823,> 100 µg/mL
same,MIC,P. sp. V 16,> 100 µg/mL
"NC[C@@H]1O[C@H](O[C@H]2[C@@H](O)[C@H](O[C@@H]3[C@@H](O)[C@H](N)C[C@H](N)[C@H]3O[C@H]3O[C@H](CO)[C@@H](O)[C@H](O)[C@H]3N)O[C@@H]2CO)[C@H](N)[C@@H](O)[C@@H]1O [Paromomycin (1), paromomycin]",MIC,"[1]; Staphylococcus aureus, 209P",1.55 µg/mL
same,MIC,P. aeruginosa 53585; 53585,> 100 µg/mL
same,MIC,"[2]; Pseudomonas aeruginosa, 9229",> 100 µg/mL
same,MIC,P. aeruginosa 5; 5,> 100 µg/mL
same,MIC,P. aeruginosa B,> 100 µg/mL
same,MIC,[3],> 200 µg/mL
same,MIC,Proteus vulgaris,50 µg/mL
same,MIC,P. aeruginosa 6; 6,> 100 µg/mL
same,MIC,P. aeruginosa 4; 4,> 100 µg/mL
same,MIC,Escherichia coli K 12; Escherichia coli,12.5 µg/mL
same,MIC,P. aeruginosa 19660; 19660,> 100 µg/mL
same,MIC,E. coli K 12 R 55 (GNT),12.5 µg/mL
same,MIC,[4],200 µg/mL
same,MIC,"Proteus mirabilis 525; Proteus mirabilis, 525",25 µg/mL
same,MIC,P. aeruginosa 53825; 53825,> 100 µg/mL
same,MIC,P. mirabilis V 15,25 µg/mL
same,MIC,P. aeruginosa 47823; 47823,> 100 µg/mL
same,MIC,P. sp. V 16,> 100 µg/mL
"NC[C@@H]1C[C@H](O)[C@@H](N)[C@@H](O[C@H]2[C@H](O[C@@H]3O[C@H](CO)[C@@H](O[C@H]4O[C@@H](CN)[C@@H](O)[C@H](O)[C@H]4N)[C@H]3O)[C@@H](O)[C@H](N)C[C@@H]2N)O1 [compound 8, 4'-deoxyneomycin B]",MIC,"[1]; Staphylococcus aureus 209 P, agar dilution, read-out: MIC",0.77 µg/mL
same,MIC,"P. aeruginosa 53585; P. aeruginosa 53585, agar dilution, read-out: MIC",25 µg/mL
same,MIC,"[2]; Pseudomonas aeruginosa 9229, agar dilution, read-out: MIC",25 µg/mL
same,MIC,"P. aeruginosa 5; P. aeruginosa 5, agar dilution, read-out: MIC",25 µg/mL
same,MIC,"P. aeruginosa B; P. aeruginosa B, agar dilution, read-out: MIC",25 µg/mL
same,MIC,[3],> 200 µg/mL
same,MIC,"Proteus vulgaris; agar dilution, read-out: MIC",12.5 µg/mL
same,MIC,"P. aeruginosa 6; P. aeruginosa 6, agar dilution, read-out: MIC",12.5 µg/mL
same,MIC,"P. aeruginosa 4; P. aeruginosa 4, agar dilution, read-out: MIC",12.5 µg/mL
same,MIC,"Escherichia coli K 12; Escherichia coli K 12, agar dilution, read-out: MIC",3.12 µg/mL
same,MIC,"P. aeruginosa 19660; P. aeruginosa 19660, agar dilution, read-out: MIC",25 µg/mL
same,MIC,E. coli K 12 R 55 (GNT),3.12 µg/mL
same,MIC,[4],25 µg/mL
same,MIC,"Proteus mirabilis 525; Proteus mirabilis 525, agar dilution, read-out: MIC",6.2 µg/mL
same,MIC,"P. aeruginosa 53825; P. aeruginosa 53825, agar dilution, read-out: MIC",50 µg/mL
same,MIC,"P. mirabilis V 15; P. mirabilis V 15, agar dilution, read-out: MIC",12.5 µg/mL
same,MIC,"P. aeruginosa 47823; P. aeruginosa 47823, agar dilution, read-out: MIC",12.5 µg/mL
same,MIC,P. sp. V 16,> 100 µg/mL
same,"antibacterial ""in vitro"" activity",bacterial strains; listed as 4'-Deoxy-neomycin B (8),higher and broader when compared with those of neomycin B and paromomycin (1)
same,"antibacterial ""in vitro"" activity",bacterial strains; listed as 4'-deoxy-neomycin B (8),higher and broader when compared with that of neomycin B
